Results: patent US8609694B2, “Use of pyridin-2-yl-methylamine derivatives for the production of a medicament for the treatment of chronic pain symptoms of neuropathological or psychogenic origin” (Pierre Fabre Medicament, priority 2003, dated 2013)

Tests used:
[1] = test system: chronic hypersensitivity after spinal cord lesion (central neuropathy); assay: central neuropathy test in the rat (spinal cord lesion, vocalization threshold to von Frey hairs); format: in vivo; settings: fumarate of (Ia) 0.63 mg/rat/day
Experimental: The central neuropathy test used is conducted in the rat according to a method analogous to that described by Hao and Xu in Pain 1996, 66, 279-286. The product to be tested is delivered at a constant rate by means of an osmotic pump (Alzet, model 2ML2) for 14 days. The pumps are implanted 28 days after spinal cord lesion and then explanted at the treatment's end. In this model, it was established that at 28 days post-lesion the animal is in a phase of chronic hypersensitivity which then lasts for several months. In this experiment, the hypersensitivity of the lesioned animals treated with compound (Ia) or with saline solution was measured. The pain threshold was objectified by the animal's persistent vocalization in response to a stimulation of increasing intensity in the sensitive region by means of von Frey hairs. […] The fumarate of compound (Ia) is administered at 0.63 mg/rat/day. The pumps implanted in the group of lesioned control animals release a 0.9% NaCl solution (saline)/rat/day.
The stimulation sensitivity tests by means of von Frey hairs are conducted 3 days after implantation of the osmotic pump and continue regularly for 28 days. The doses refer to the weight of non-salified compound.
The effects obtained with compound (Ia) in comparison with those of the lesioned control animals that received saline solution are represented in FIG. 3 in the appendix.

[2] = test system: hypersensitivity (allodynia) after unilateral ligature of the infraorbital nerve (peripheral neuropathy); assay: peripheral neuropathy test in the rat (unilateral ligature of the infraorbital nerve, von Frey hair response score 0-4); format: in vivo; settings: for amplitude of decrease of perceived pain intensity compared with baclofen: after nerve lesion of peripheral origin; for analgesic effect six days after the treatment's end (day 21): day 21, 6 days after pump explantation, same doses; for amplitude of analgesia 6 days after the treatment's end compared with amplitude at the treatment's end (day 15): day 21 versus day 15; for reduction of hypersensitivity (allodynia) to stimulation during treatment, versus saline: osmotic pump 14 days implanted 24 hours before lesion, (Ia) 0.63, (Ib) 0.16, morphine 5, baclofen 1.06 mg/rat/day, days 4-15
Experimental: The peripheral neuropathy test used was conducted in the rat according to a method analogous to that described by Vos in J. Neurosci. 1994, 14, 2708-2723. The product to be tested is delivered at a constant rate (0.12 ml/day) by means of an osmotic pump (Alzet, model 2ML2) for 14 days. The pumps are implanted 24 hours before lesion (unilateral ligature of the infraorbital nerve) and then explanted at the treatment's end. The pumps are implanted subcutaneously via a transverse incision made in the dorsal skin of the rat. Evaluation of the intensity of perceived pain is objectified from a series of behavioral signs observed in response to mechanical stimulation of the region lesioned by means of von Frey hairs. Stimulations are applied in order of increasing intensity. Intensity of perceived pain is evaluated from the following criteria: 0, no response by the animal; 1, detection (i.e., the rat turns its head towards the object used for stimulation); 2, withdrawal (i.e., the rat turns away or makes a withdrawal movement with its head to avoid the object used for stimulation); 3, flight or attack (i.e., the rat avoids the object by moving its body or deliberately attacks the object used for stimulation); 4, face rubbing (i.e., the rat rubs the area of stimulation three times in succession). The response level by the non-lesioned animals was 0 or 1.
The fumarate of compound (Ia) is administered at 0.63 mg/rat/day; the glycolate of compound (Ib) at 0.16 mg/rat/day; morphine hydrochloride at 5 mg/rat/day, and baclofen at 1.06 mg/rat/day. All the compounds are administered in solution in distilled water. The pumps implanted in the control animals release a 0.9% NaCl solution (saline)/rat/day; the doses refer to the weight of non-salified compound.
The effects obtained with compounds (Ia), (Ib), and the products chosen as references are represented in FIGS. 4 to 8 in the appendix. FIGS. 4 to 7 represent the analgesic effects of the various products evaluated at days 4, 6, 8, 11, and 13 of treatment and 1 day following explantation of the pump (day 15). FIG. 8 represents the analgesic effects of the various products measured at day 21, which is 6 days following the treatment's end.
The individual scores of each animal represent the average (±standard error) obtained after application of the von Frey hairs. The comparison of the results between the various groups as well as the progress of the values obtained over time are performed using an analysis of variance test (ANOVA), followed by a Dunnett's multiple comparison test.

[3] = test system: hypersensitivity (allodynia) after unilateral ligature of the infraorbital nerve (peripheral neuropathy); settings: rat infraorbital nerve ligature model; cited from earlier work

## Cc1ccc(CNCC2(F)CCN(C(=O)c3ccc(F)c(Cl)c3)CC2)nc1 [Compound (Ia)]
[1]; after day 15, 14 days following pump explantation
  analgesia after treatment is interrupted (curative phase): analgesia persists and is maintained at the same level as that attained at the treatment's end
[1]; osmotic pump 14 days implanted 28 days after spinal cord lesion
  symptomatic analgesia (vocalization threshold to von Frey stimulation) during treatment, versus saline: statistically significant as of the tenth day of treatment
[2]
  amplitude of decrease of perceived pain intensity compared with baclofen: at least equivalent
  analgesic effect six days after the treatment's end (day 21): continued to show a significant analgesic effect
  amplitude of analgesia 6 days after the treatment's end compared with amplitude at the treatment's end (day 15): not statistically different
  reduction of hypersensitivity (allodynia) to stimulation during treatment, versus saline: significantly after day 11

## CNc1nc(CNCC2(F)CCN(C(=O)c3ccc(F)c(Cl)c3)CC2)ccc1C [Compound (Ib)]
[2]
  amplitude of decrease of perceived pain intensity compared with baclofen: at least equivalent
  analgesic effect six days after the treatment's end (day 21): continued to show a significant analgesic effect
  amplitude of analgesia 6 days after the treatment's end compared with amplitude at the treatment's end (day 15): not statistically different
  reduction of hypersensitivity (allodynia) to stimulation during treatment, versus saline: significantly only after day 13

## NCC(CC(=O)O)c1ccc(Cl)cc1 (stereo not drawn) [baclofen, reference compound]
[2]
  analgesic effect six days after the treatment's end (day 21): disappeared completely
  reduction of hypersensitivity (allodynia) to stimulation during treatment, versus saline: significant analgesic effect after day 11
[3]
  activity in the peripheral neuropathy model as established previously: agent with the highest activity

## CN1CC[C@]23c4c5ccc(O)c4O[C@H]2[C@@H](O)C=C[C@H]3[C@H]1C5 [morphine, reference compound]
[2]
  analgesic effect six days after the treatment's end (day 21): disappeared completely
  reduction of hypersensitivity (allodynia) to stimulation during treatment, versus saline: inactive
